In test [1] the test system is A. niger, B. cinerea, A. alternata, and P. digitatum. Briefly: Ability of commercially available VOC compounds to control growth of four test fungi. Type of test: cell-based. To be noted: single commercially available compound. The protocol: (§1) All chemical compounds were purchased from Sigma (Rehovot, Israel) and were of the highest purity available. The bioactivity of the mixtures combined on the VOCs identified, was determined as follows: Petri dishes (90 mm, 80 mL air volume) containing 15 mL of media (PDA amended with 12 μg/mL tetracycline) were inoculated (triplicates, 2 plugs each) with the test fungi A. alternata and B. cinerea (in the same plate), P. digitatum and A. niger (in separate plates). A cup of an Eppendorf tube was placed in the middle of the plate to which increasing volumes (0-200 μL) of the mixture was added. Then, the plates were sealed with parafilm and incubated at room temperature for two days before comparing the growth of the test fungi in those plates to control plates in the absence of the mixture. The ability of two mixtures: Mixture A and Mixture B to control other plant pathogenic fungi was determined as described above except that the concentration of the mixture was constant (1 mL/L) and the growth inhibition was estimated after 6 days. The viability of the test fungi after exposure to the mixtures was examined as described for D. concentrica.
(§2) The activity of each chemical component of the mixture was examined separately as described for the mixtures. […]

The test system of the next test is M. javanica J2 larvae. Briefly: Phenotype of second stage juveniles under a stereomicroscope after exposure. The format is in vivo, Meloidogyne javanica. To be noted: 0.05 mL/L preloaded to 25 mg of perlite particles; 48 hours at 25° C. The protocol: FIGS. 20A-D show second stage juveniles' phenotype following exposure to D. concentrica culture, synthetic mixture, and the compound 4-heptanone. The nematodes were exposed to each condition for 48 hours at 25° C. in the dark before visualization. FIG. 20A. Control—non treated nematodes. FIG. 20B. Nematodes exposed to three D. concentrica culture plates (50 mm in diameter with 5 mL growth medium) pre-grown for 4 days. FIG. 20C. Nematodes exposed to 0.25 mL/L of synthetic mixture preloaded to 125 mg of perlite particles. FIG. 20D. Nematodes exposed to 0.05 mL/L of the compound 4-heptanone preloaded to 25 mg of perlite particles. The bar indicates […].
The effects of D. concentrica, synthetic mixture and the pure compound 4-heptanone were also examined visually under a stereomicroscope. The results are presented in FIGS. 20A-D wherein FIG. 20A represents non-treated nematodes; FIG. 20B represents nematodes exposed to three D. concentrica culture plates (50 mm in diameter with 5 mL growth medium) pre-grown for 4 days; FIG. 20C represents nematodes exposed to 0.25 mL/L of synthetic mixture preloaded to 125 mg of perlite particles; FIG. 20D represents nematodes exposed to 0.05 mL/L of the compound 4-heptanone preloaded to 25 mg of perlite particles.

Another test relates to Aspergillus niger. Briefly: Chemical mixtures bioactivity test in sealed Petri dish. Type of test: cell-based. As to conditions: single compound. The protocol:
as §1, §2

For a further test, the system named is Penicillium digitatum. The description is as above. Type of test: cell-based. To be noted: single compound. The protocol:
as §1, §2

In the case of `COc1cc2ccccc2cc1O` [3-methoxy-2-naphthol], the “ability to control the growth of A. niger, B. cinerea, A. alternata, and P. digitatum” value in test [1] is listed as “failed to inhibit fungal growth”.

For the compound `CCCC(=O)CCC` [Mixture 4-heptanone, 4-heptanone], the “nematode phenotype (body shape, viability)” value with M. javanica J2 larvae is recorded as “most of the nematodes demonstrated the typical straight body shape with nearly no curved appearance”.

As to `OCCc1ccccc1` [phenyl ethyl alcohol], in test [1], the “ability to control the growth of A. niger, B. cinerea, A. alternata, and P. digitatum” value was “failed to inhibit fungal growth”.

On to methyl-1,4-cyclohexadiene, for which the “growth inhibition of A. niger” value in the test on Aspergillus niger was determined as 10.8%. Besides, the “growth inhibition of P. digitatum” value in the test on Penicillium digitatum came to 3.1%.

The values are drawn from patent publication US12098362B2, “Uses of Daldinia sp. or volatile organic compounds derived therefrom” (THE STATE OF ISRAEL, MINISTRY OF AGRICULTURE & RURAL …, priority 2015, dated 2024).
